# Reference: ChEMBL document CHEMBL5465560, “Selectivity Literature for EUbOPEN Chemogenomic Library” (2024)
# Key:
# [1] = target: Serine/threonine-protein kinase OSR1 (Homo sapiens) (UniProt O95747); assay: Selectivity interaction (ActivX KiNativ screen (kinase selectivity in THP-1 cell lysates)) EUB0000639a OXSR1; type: subcellular; conditions: lysate
# [2] = target: Protein arginine N-methyltransferase 1 (Homo sapiens, UniProt Q99873); conditions: at 1 µM
# [3] = target: Mitogen-activated protein kinase 11 (Homo sapiens) (UniProt Q15759); assay: Selectivity interaction (KinomeScan (DiscoverX)) EUB0000695a MAPK11; conditions: at 100 nM
# [4] = target: T1, Serine/threonine-protein kinase Nek2 (Homo sapiens) (UniProt P51955); assay: Selectivity interaction (KinomeScan (DiscoverX)) EUB0000695a NEK2; conditions: at 100 nM
# T1 sequence (whole entry): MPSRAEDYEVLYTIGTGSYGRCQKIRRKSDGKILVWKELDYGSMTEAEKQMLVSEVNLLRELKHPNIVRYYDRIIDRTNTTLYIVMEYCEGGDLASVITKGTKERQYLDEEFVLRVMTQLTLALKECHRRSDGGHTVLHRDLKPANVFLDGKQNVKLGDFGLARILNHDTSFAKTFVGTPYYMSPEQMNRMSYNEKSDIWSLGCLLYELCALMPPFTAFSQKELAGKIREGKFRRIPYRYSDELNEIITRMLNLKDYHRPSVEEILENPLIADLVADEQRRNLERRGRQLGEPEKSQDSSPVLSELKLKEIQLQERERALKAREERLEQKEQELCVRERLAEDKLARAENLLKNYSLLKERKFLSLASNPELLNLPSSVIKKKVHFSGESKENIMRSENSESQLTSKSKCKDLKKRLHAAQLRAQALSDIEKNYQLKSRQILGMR
# [5] = target: Neuromedin-K receptor (Homo sapiens) (UniProt P29371); assay: Selectivity interaction (Eurofins CEREP Diversity Profile (receptors and ion channels)) EUB0000279b TACR3; conditions: at 10 µM
# Chain of Neuromedin-K receptor (Homo sapiens) (P29371 whole entry): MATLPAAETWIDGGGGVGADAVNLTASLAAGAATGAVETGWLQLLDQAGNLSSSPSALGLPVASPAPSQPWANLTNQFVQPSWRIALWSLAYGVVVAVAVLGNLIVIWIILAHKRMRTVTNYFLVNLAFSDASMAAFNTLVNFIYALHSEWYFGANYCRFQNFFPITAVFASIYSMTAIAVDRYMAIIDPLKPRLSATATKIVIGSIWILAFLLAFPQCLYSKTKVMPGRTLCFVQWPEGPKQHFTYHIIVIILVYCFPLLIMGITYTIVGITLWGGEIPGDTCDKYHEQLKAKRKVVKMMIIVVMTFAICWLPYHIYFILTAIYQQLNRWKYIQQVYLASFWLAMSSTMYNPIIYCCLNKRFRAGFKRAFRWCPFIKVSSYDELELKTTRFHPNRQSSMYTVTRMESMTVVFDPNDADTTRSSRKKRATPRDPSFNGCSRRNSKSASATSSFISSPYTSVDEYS
# [6] = target: Protein kinase C eta type (Homo sapiens) (UniProt P24723); conditions: at 10 µM
# [7] = target: Serine/threonine-protein kinase RIO2 (Homo sapiens) (UniProt Q9BVS4); assay: Selectivity interaction (KinomeScan (DiscoverX)) EUB0000595a RIOK2; conditions: at 10 µM
# [8] = target: Serine/threonine-protein kinase N3 (Homo sapiens) (UniProt Q6P5Z2); assay: Selectivity interaction (ProQinase) EUB0000171b PKN3
# Chain of Serine/threonine-protein kinase N3 (Homo sapiens) (Q6P5Z2 whole entry, looked up): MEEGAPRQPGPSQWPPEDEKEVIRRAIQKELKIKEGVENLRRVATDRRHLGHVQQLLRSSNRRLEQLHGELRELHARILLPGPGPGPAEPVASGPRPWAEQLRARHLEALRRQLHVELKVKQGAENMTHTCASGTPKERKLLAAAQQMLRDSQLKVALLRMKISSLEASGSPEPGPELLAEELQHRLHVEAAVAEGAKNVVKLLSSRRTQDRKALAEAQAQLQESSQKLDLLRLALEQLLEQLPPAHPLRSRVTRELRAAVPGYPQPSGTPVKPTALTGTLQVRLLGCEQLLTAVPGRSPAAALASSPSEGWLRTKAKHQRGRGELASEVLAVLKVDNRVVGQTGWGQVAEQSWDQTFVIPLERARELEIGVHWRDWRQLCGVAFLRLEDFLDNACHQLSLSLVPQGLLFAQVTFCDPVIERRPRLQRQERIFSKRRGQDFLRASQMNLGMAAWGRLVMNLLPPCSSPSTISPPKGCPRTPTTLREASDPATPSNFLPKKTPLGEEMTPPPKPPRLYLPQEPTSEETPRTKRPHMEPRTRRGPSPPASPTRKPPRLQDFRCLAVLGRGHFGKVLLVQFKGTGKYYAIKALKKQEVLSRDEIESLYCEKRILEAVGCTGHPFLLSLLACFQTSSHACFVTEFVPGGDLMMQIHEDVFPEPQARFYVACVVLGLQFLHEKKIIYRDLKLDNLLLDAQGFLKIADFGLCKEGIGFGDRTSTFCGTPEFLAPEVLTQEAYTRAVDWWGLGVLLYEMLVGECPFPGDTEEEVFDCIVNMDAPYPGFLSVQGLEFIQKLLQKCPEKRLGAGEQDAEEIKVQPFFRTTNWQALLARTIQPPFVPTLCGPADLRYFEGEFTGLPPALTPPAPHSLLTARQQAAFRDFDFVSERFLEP
# [9] = target: T2, Receptor-interacting serine/threonine-protein kinase 4 (Homo sapiens) (UniProt P57078); assay: Selectivity interaction (KinomeScan (DiscoverX)) EUB0000045b RIPK4
# T2 sequence (whole entry): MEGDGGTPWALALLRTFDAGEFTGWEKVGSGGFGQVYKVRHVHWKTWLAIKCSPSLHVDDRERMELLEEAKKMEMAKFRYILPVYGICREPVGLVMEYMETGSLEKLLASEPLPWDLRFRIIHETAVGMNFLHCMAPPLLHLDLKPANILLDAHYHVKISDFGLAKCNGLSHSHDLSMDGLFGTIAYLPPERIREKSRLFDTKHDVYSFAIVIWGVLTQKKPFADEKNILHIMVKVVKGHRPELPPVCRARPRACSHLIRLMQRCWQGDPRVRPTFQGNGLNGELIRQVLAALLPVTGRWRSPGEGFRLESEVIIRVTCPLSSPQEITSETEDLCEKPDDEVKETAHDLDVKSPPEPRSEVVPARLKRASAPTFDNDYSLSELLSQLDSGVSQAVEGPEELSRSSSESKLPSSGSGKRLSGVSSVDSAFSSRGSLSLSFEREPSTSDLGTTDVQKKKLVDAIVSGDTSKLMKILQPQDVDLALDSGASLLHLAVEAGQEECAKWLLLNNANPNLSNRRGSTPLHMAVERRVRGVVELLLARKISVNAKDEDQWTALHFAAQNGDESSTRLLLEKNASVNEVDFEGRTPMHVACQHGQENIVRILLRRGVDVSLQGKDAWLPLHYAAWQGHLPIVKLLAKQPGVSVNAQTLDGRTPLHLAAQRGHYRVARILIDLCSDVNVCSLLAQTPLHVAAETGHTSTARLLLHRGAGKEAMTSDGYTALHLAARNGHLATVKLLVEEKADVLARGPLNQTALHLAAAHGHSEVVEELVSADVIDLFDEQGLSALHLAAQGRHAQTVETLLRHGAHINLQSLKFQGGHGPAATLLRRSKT
# [10] = target: RAC-gamma serine/threonine-protein kinase (Homo sapiens, UniProt Q9Y243); assay: Selectivity interaction (KinomeScan (DiscoverX)) EUB0000045b AKT3
# Chain of RAC-gamma serine/threonine-protein kinase (Q9Y243 whole entry): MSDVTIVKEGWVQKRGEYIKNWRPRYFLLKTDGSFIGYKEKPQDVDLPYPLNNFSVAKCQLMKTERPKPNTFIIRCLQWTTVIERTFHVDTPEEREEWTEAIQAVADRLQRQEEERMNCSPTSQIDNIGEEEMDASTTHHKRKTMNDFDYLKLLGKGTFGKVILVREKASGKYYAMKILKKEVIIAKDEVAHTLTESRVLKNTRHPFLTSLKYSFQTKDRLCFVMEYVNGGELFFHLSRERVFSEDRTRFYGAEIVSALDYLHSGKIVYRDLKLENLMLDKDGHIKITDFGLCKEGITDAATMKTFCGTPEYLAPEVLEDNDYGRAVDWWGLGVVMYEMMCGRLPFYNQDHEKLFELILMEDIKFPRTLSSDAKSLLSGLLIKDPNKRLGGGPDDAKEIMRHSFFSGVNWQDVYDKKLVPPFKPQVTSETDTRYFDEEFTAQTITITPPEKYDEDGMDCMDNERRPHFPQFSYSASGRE
# [11] = target: Serine/threonine-protein kinase SIK2 (Homo sapiens) (UniProt Q9H0K1); assay: Selectivity interaction (KinomeScan (DiscoverX)) EUB0000655a SIK2; conditions: at 10 µM
# Chain of Serine/threonine-protein kinase SIK2 (Homo sapiens) (Q9H0K1 whole entry, looked up): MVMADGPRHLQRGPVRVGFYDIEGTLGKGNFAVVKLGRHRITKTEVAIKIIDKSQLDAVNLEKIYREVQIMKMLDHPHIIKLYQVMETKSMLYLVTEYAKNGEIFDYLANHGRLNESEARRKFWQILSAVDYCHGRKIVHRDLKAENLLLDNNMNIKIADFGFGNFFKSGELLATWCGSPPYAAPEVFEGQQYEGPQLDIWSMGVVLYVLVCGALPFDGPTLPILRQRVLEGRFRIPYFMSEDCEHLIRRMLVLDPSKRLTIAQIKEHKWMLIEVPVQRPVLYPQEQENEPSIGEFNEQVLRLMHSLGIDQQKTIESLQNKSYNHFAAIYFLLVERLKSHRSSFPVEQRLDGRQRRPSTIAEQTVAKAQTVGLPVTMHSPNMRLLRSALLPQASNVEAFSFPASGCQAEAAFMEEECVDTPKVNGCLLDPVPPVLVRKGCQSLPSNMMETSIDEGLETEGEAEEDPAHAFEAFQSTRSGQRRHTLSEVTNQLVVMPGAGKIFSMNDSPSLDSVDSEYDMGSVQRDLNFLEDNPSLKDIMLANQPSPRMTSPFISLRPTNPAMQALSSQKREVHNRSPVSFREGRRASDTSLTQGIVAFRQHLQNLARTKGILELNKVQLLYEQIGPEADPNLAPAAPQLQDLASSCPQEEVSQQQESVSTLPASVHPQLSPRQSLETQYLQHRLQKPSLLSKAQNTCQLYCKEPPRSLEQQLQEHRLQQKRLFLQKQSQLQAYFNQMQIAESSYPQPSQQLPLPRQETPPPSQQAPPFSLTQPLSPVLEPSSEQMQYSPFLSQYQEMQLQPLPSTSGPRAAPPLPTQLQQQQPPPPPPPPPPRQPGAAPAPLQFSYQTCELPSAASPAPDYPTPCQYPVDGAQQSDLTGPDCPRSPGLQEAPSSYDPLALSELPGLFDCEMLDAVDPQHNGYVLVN
# [12] = target: Calcium/calmodulin-dependent protein kinase type II subunit alpha (Homo sapiens, UniProt Q9UQM7); assay: Selectivity interaction (KinomeScan (DiscoverX)) EUB0000655a CAMK2A; conditions: at 10 µM
# [13] = target: Serine/threonine-protein kinase MARK1 (Homo sapiens) (UniProt Q9P0L2); assay: Selectivity interaction (KinomeScan (DiscoverX)) EUB0000655a MARK1; conditions: at 10 µM
# Chain of Serine/threonine-protein kinase MARK1 (Homo sapiens) (Q9P0L2 whole entry, looked up): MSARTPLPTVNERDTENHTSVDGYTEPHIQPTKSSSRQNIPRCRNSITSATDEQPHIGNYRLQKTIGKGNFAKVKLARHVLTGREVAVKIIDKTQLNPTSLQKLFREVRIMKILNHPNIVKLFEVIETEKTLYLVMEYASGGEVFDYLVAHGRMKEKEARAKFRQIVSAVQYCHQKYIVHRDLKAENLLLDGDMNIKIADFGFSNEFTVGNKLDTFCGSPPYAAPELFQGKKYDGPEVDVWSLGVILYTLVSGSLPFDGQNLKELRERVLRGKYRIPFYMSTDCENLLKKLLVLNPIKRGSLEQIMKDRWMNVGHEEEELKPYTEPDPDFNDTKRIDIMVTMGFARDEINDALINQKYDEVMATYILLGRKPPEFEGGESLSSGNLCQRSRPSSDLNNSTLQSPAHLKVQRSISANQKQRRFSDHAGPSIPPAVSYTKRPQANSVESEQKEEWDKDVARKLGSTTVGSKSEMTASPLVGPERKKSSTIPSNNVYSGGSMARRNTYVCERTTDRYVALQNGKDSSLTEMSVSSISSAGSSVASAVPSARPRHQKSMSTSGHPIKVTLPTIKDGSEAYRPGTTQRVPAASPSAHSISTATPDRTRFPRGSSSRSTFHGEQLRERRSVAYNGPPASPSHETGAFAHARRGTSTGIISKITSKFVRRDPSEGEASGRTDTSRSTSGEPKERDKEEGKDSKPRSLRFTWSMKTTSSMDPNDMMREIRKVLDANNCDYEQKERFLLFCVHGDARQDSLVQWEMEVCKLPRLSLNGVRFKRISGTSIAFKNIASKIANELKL
# [14] = target: Dual specificity mitogen-activated protein kinase kinase 1 (Homo sapiens, UniProt Q02750); assay: Selectivity interaction (SelectScreen profiling (Invitrogen)) EUB0000607a MAP2K1; conditions: at 2 µM
# Chain of Dual specificity mitogen-activated protein kinase kinase 1 (Q02750 whole entry): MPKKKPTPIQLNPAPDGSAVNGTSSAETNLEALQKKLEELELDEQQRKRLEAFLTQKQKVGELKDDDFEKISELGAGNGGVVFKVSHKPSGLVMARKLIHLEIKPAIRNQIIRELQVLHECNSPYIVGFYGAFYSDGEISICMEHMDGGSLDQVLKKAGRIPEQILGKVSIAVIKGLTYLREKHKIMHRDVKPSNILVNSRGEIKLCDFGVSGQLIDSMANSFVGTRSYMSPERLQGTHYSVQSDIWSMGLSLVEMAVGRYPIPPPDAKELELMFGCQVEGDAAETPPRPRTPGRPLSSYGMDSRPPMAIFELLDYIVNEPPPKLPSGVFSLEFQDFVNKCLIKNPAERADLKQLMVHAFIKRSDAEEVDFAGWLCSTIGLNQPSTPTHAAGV
# [15] = target: Calcium/calmodulin-dependent protein kinase type 1D (Homo sapiens) (UniProt Q8IU85); assay: Selectivity interaction (Kinase panel (DSF assay)) EUB0001558a CAMK1D
# Chain of Serine/threonine-protein kinase OSR1 (Homo sapiens) (O95747 2-527 limits assumed): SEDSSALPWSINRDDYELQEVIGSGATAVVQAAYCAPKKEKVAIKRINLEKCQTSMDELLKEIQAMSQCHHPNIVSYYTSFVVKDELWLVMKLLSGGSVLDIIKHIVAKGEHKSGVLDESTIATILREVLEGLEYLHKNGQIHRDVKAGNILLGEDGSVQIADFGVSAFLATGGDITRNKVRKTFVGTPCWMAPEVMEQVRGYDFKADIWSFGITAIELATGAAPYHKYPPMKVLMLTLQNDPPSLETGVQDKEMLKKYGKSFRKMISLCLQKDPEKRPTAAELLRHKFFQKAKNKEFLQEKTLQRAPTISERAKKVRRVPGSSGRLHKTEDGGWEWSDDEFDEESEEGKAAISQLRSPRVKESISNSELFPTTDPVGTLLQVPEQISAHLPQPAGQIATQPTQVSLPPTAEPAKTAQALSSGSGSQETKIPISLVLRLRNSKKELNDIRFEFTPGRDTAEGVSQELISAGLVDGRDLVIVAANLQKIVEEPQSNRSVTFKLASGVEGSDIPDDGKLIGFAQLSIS
# Chain of Protein arginine N-methyltransferase 1 (Q99873 whole entry, looked up): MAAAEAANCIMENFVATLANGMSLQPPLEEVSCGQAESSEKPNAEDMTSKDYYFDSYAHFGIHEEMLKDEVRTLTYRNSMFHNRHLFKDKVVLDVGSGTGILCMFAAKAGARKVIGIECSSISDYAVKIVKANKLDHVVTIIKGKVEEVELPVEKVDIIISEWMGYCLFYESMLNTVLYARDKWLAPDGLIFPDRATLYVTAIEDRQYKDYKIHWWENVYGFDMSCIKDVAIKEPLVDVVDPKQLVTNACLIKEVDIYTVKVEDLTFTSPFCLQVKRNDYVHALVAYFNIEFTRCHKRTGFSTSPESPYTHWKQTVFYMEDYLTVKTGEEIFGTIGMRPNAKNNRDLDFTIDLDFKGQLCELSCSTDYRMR
compound,measurement,setting,value
CC[C@@H]1[C@H](F)C(=O)N[C@@H]1COc1nccc2cc(C(N)=O)c(OC)cc12 [ZIMLOVISERTIB],% of inhibition,[1]; at 0.01 µM,-18.1%
same,% of inhibition,[1]; at 0.04 µM,-9.1%
same,% of inhibition,[1]; at 0.2 µM,-3%
same,% of inhibition,[1]; at 1 µM,-10.3%
same,% of inhibition,[1]; at 5 µM,16.3%
CNCCN1CCC(c2cc(CN(C)C(=O)c3cccc(Oc4ccccc4)c3)ccn2)CC1,% activity,[2],> 90%
Cc1cc(F)c(C(=O)Nc2cccc(-c3nncn3C(C)C)n2)cc1-n1cnc(C2CC2)c1,% of control,[3],100%
same,% of control,[4],100%
CC(=O)c1cc(-c2ccccc2OCC2CC2)c2ncccn12,% of control,[5],85%
CCN(CC)CCCCNc1ncc2cc(-c3cc(OC)cc(OC)c3)c(NC(=O)NC(C)(C)C)nc2n1,% of control,[6],100%
COCC(=O)NC/C=C/c1ccc2ncnc(Nc3ccc(Oc4ccc(C)nc4)c(C)c3)c2c1 [CP-724714],% of control,[7],100%
C=CC(=O)Nc1cccc(C(=O)Nc2ccc(Nc3cc(-c4[nH]c(SC)nc4C)ccn3)cc2)c1,% of control,[8]; at 1 µM,79%
same,% of control,[8]; at 5 µM,54%
C=CC(=O)Nc1cc(-n2c(=O)ccc3cnc4ccc(-c5ccc(NS(C)(=O)=O)cc5)cc4c32)ccc1C,% of control,[9]; at 1 µM,100%
same,% of control,[9]; at 10 µM,100%
same,% of control,[10]; at 1 µM,75%
same,% of control,[10]; at 10 µM,100%
CN(C)CCOc1ccc(-c2nc(-c3ccncc3)c(-c3ccc4c(c3)CC/C4=N\O)[nH]2)cc1,% of control,[11],91%
same,% of control,[12],88%
same,% of control,[13],100%
CNC(=O)Nc1ccc(-c2nc(N3CC4CCC(C3)O4)c3cnn(C4CCC5(CC4)OCCO5)c3n2)cc1,% of inhibition,[14],3%
CC(C)(O)[C@H](F)CN1Cc2cc(NC(=O)c3cnn4cccnc34)c(N3CCOCC3)cc2C1=O,dTM,[15],-0.1 K
